Data taken from publication PMC3909264, “A Novel Acylaminoimidazole Derivative, WN1316, Alleviates Disease Progression via Suppression of Glial Inflammation in ALS Mouse Model” (PLoS ONE, 2014).
Structures can show the parent of a compound that is named as a salt.

Key:
[1] = tested on: differentiated SH-SY5Y cells; assay: Anti-oxidative stress-induced neuronal cell death (AOND) analysis, AlamarBlue cell viability; format: cell-based, human
Experimental: Human neuroblastoma SH-SY5Y cells (ATCC, CRL-2266) were grown in Dulbecco’s modified Eagle’s medium (DMEM) supplemented with 10% fetal bovine serum (HyClone, Thermo Fisher Scientific Inc.), 100 U/ml penicillin, and 100 µg/ml streptomycin at 37°C in 5% CO2. For differentiation, SH-SY5Y cells were seeded at a density of 0.75×10^4 cells per well in 96-well plates (Primaria, BD Falcon) for 1 day, and cultured in the medium containing 10 µM all-trans retinoic acid for additional 5 days.
[…] Then, the cells were exposed to various concentrations of cytotoxins, including oxidative stressors [menadione, 10 to 80 µM for 4 to 6 h; α-naphthoquinone, 12.5 µM for 4 h; 6-hydroxydopamine (6-OHDA), 400 µM for 4 h], protein kinase inhibitor (staurosporine, 25 µM for 6 h) and phosphatase inhibitor (okadaic acid, 1 µM for 6 h), in fresh medium. Cell viability was measured by AlamarBlue assay (Invitrogen) as described previously.

ALS(SOD1^H46R) mice = assay: Post-onset oral administration in ALS(SOD1^H46R) mice: motor function, body weight, survival; format: in vivo; settings: for balance beam test: duration from onset to the day the mouse was unable to stay on the bar: n = 26, mean ± SEM (vehicle 20.7±0.7); for survival interval after onset: n = 26, mean ± SD (vehicle 36.6±6.2)
From the text: Transgenic mice carrying the H46R mutation in the human SOD1 gene; SOD1^H46R were used as a familial ALS mouse model. […] Since the genetic background is one of the important factors modulating disease phenotypes in mutant SOD1 transgenic mice, we first generated a congenic line of ALS(SOD1^H46R) transgenic mice by backcrossing more than 15 generations to B6 mice.
The lines were maintained as hemizygotes by mating ALS(SOD1^H46R) and ALS(SOD1^G93A) males with B6 females. Offspring were genotyped by PCR using genomic DNA from tail tissue. Mice were housed at 23°C with a 12 h light/dark cycle, in which water and food was available ad libitum. The condition of each animal was monitored weekly initially and then daily after disease onset. The lifespan was determined by the days from disease onset to the endpoint, in which mouse lost active and/or spontaneous movement. All animal experimental procedures were approved by the Institutional Animal Care and Use Committee at Tokai University.
WN1316 was dissolved in MQ water, and diluted with physiological saline. ALS(SOD1^H46R) transgenic mice were given WN1316 via gastric tube (CAT.No.4202, Fuchigami) at a dose of either 1 µg, 10 µg or 100 µg/5 ml/kg body weight. ALS(SOD1^G93A) transgenic mice were given 10 µg/kg WN1316. Animals simultaneously treated with physiological saline (vehicle group, 5 ml/kg) were used as controls.
To determine the onset of motor dysfunction in ALS(SOD1^H46R) transgenic mice, we adopted a balance beam test as previously described in detail. To determine the onset of motor dysfunction in ALS(SOD1^G93A) transgenic mice, we adopted both balance beam and grip strength tests. Grip strength test was assessed using a traction meter (BrainScience Idea Co., Ltd.). Each mouse was given three trials, and the highest limb strength score was recorded. For ALS(SOD1^G93A) transgenic mice, grip strength tests were started at 11 weeks of age and performed twice a week until an over 20% reduction compared with the initial limb strength score at 11 weeks of age was observed. Finally, a grade 3 in the balance beam test and over 20% reduction of limb strength score were defined as the sign of the disease onset in ALS(SOD1^G93A) transgenic mice.
The gross phenotypes were measured blindly. The body weight of each mouse was measured weekly initially and then daily after disease onset. Mice were assessed for gross behavior every week from 12 weeks of age in ALS(SOD1^H46R) mice and from 11 weeks of age in ALS(SOD1^G93A) mice until the endpoint. In particular, hind limb movement and rearing behavior of each animal were monitored weekly from 12 weeks of age until the end stage. The days from the disease onset to the endpoint were counted individually as the survival interval.
We assessed motor performance and coordination, and balance in the mice by the balance-beam test, vertical pole test, and footprint analysis as previously described in detail and grip strength test as described above. In brief, the balance-beam test was performed every day after the onset until mice were unable to stay on the bar. Each mouse was given a maximum of five vertical pole trials using the following two criteria; 1) a cutoff of 45cm and 2) the task was terminated when mouse reached the vertical ascending distance of 45 cm. The highest vertical ascending distance was scored. The footprint trial was conducted at 18 and 21 weeks of age in ALS(SOD1^H46R) mice and at 12, 16, and 20 weeks of age in ALS(SOD1^G93A) mice. Grip strength test of ALS(SOD1^H46R) mice was started at 17 weeks of age and performed once a week.
To evaluate the spontaneous motor activities in mice, we conducted cage activity and rearing performance tests by using SUPERMEX with infrared ray sensor monitor (Muromachi Kikai). […]

HeLa cells = assay: Detection of intracellular ROS, •OH and 4-HNE after oxidative insult; format: cell-based, human; settings: 10 µM, 8 h, then menadione or FeSO4/H2O2 1 h
Experimental: HeLa cells (ATCC, CCL-2) cultured on poly-L-lysine-coated coverslips were treated with WN1316 (10 µM) or vehicle (DMSO) for 8 h and incubated with 10 µM H2DCF-DA for 30 min. Cells were then exposed to 60 µM menadione for 1 h. Confocal fluorescence images were obtained using Zeiss LSM 700 confocal microscope.
To detect the hydroxyl radical (•OH), we used hydroxyphenyl fluorescein (HPF) as a specific probe. In brief, HeLa cells were treated with WN1316 (10 µM) or vehicle (DMSO) for 8 h and then incubated with 100 µM HPF for 30 min at 37°C in Hanks’s buffer (Invitrogen). After washing with phosphate-buffered saline (PBS), the reaction buffer (0.1 mM FeSO4, 0.2 mM H2O2) was added, and cells were incubated for 1 h at 37°C to generate •OH. Confocal fluorescence images were obtained using the lambda mode of Zeiss LSM 510 Meta confocal microscope and analytical software.
HeLa cells cultured on poly-L-lysine-coated coverslips were treated with 10 µM WN1316 or DMSO for 8 h, and then incubated in fresh medium containing 60 µM menadione for 1 h. Cells were fixed in 0.1% glutaraldehyde/4% paraformaldehyde/PBS for 10 min, rinsed three times with PBS, and permeabilized with 0.1% Triton-X-100 for 15 min. […]

[2] = Water solubility (stated property); format: physicochemical

In the case of `Cc1cc(C)c(N(C)CC(=O)Nc2nc(-c3ccccn3)c[nH]2)c(C)c1` [WN1316, 2-[mesityl(methyl)amino]-N-[4-(pyridin-2-yl)-1H-imidazol-2-yl] acetamide trihydrochloride], the “pre-treatment time required for AOND activity” value ([1]; 6 µM WN1316, then 60 µM menadione 4 h) is reported as greater than 8 h, the “concentration that militates against cytoprotection” value ([1]; 8 h treatment, then 60 µM menadione 4 h) is reported as greater than 20 µM and the “cytoprotection against oxidative stress-induced cell death” value ([1]; compound 24 h, then 60 µM menadione 4 h, compared with mother compound CPN-9) is reported as “marked cytoprotection”. The “selectivity of protection against various cytotoxins” value ([1]; menadione, α-naphthoquinone, 6-OHDA vs staurosporine, okadaic acid, 8 h pretreatment) was “greatest protection against oxidative stress-induced damage”, the “balance beam test: duration from onset to the day the mouse was unable to stay on the bar” value (shortened to “balance beam test: duration from onset”) (ALS(SOD1^H46R) mice; 1 µg/kg/day p.o. post-onset) was 25.6 ± 0.9 days and the “survival interval after onset” value (ALS(SOD1^H46R) mice; 1 µg/kg/day p.o.) was 43.8 ± 5.5 days. The “balance beam test: duration from onset” value (ALS(SOD1^H46R) mice; 10 µg/kg/day p.o. post-onset) was 26.3 ± 0.6 days, the “survival interval after onset” value (ALS(SOD1^H46R) mice; 10 µg/kg/day p.o.) was 43.9 ± 4.4 days and the “balance beam test: duration from onset” value (ALS(SOD1^H46R) mice; 100 µg/kg/day p.o. post-onset) was 28.4 ± 0.8 days. The “survival interval after onset” value (ALS(SOD1^H46R) mice; 100 µg/kg/day p.o.) was 45.9 ± 6.0 days, the “effect on mouse weight” value (ALS(SOD1^H46R) mice; 1, 10, 100 µg/kg/day, 12–24 weeks of age) was “did not affect mouse weight” and the “prolongation of post-onset survival” value (ALS(SOD1^H46R) mice; 1–100 µg/kg/day p.o., vs vehicle) was 20–25%. The “vertical pole climbing and grip strength” value (ALS(SOD1^H46R) mice; 1–100 µg/kg/day, 21–22 weeks of age (late symptomatic stage), vs vehicle) was “significant preservation of motor performance”, the “gait on footprint analysis” value (ALS(SOD1^H46R) mice; 21 weeks of age (late symptomatic stage)) was “short but still steady gait” and the “autopsy findings of organs such as heart and kidney” value (ALS(SOD1^H46R) mice; WN1316-treated mice, data not shown) was “no pathological abnormalities”. The “level of intracellular •OH and lipid peroxidation” value (HeLa cells) was “markedly reduced their levels” and the “water solubility (in words)” value [2] was “highly soluble in water”.
